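A five-concentration, 48-hour dose response in 96-well plates underlies each endpoint, interpolated linearly between surrounding concentrations. GI50 marks 50% less growth.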 Calls of active or inactive are those of the source. Rule as the data show it: active = GI50 up to about 1.1 µM and inactive = higher.
Assays:
Assay in all cases: inhibition of tumour cell growth, NCI panel, 48 h
CAKI-1 = system: CAKI-1
MDA-MB-435 = system: MDA-MB-435
786-0 = system: 786-0
TK-10 = system: TK-10
KM12 = system: KM12
Hs-578T = system: Hs-578T
SF-295 = system: SF-295
MDA-MB-231 = system: MDA-MB-231
CCRF-CEM = system: CCRF-CEM
SN12C = system: SN12C
SK-OV-3 = system: SK-OV-3
EKVX = system: EKVX
RPMI-8226 = system: RPMI-8226
NCI-H23 = system: NCI-H23
OVCAR-8 = system: OVCAR-8
LOX IMVI = system: LOX IMVI
SK-MEL-5 = system: SK-MEL-5
UACC-257 = system: UACC-257
SW-620 = system: SW-620
MCF7 = system: MCF7

Measured: GI50

Cc1cc(C)c(P2C(=C(O[Si](C(C)C)(C(C)C)C(C)C)C(C)(C)C)C2(c2ccccc2)c2ccccc2)c(C)c1 (stereo not given)
inactive: CAKI-1 > 100 µM | MDA-MB-435 > 100 µM | 786-0 > 100 µM | TK-10 > 100 µM | KM12 94 µM | Hs-578T > 100 µM | SF-295 > 100 µM | MDA-MB-231 > 100 µM | CCRF-CEM > 100 µM | SN12C > 100 µM | SK-OV-3 > 100 µM | EKVX > 100 µM | RPMI-8226 62.8 µM | NCI-H23 > 100 µM | OVCAR-8 > 100 µM | LOX IMVI > 100 µM | SK-MEL-5 > 100 µM | UACC-257 > 100 µM | SW-620 > 100 µM | MCF7 > 100 µM

O=C1OC(C2Cc3ccc4c(c3C2=O)CCC4)c2ccccc21 (stereo not given)
inactive: CAKI-1 > 100 µM | MDA-MB-435 40.5 µM | 786-0 40.7 µM | TK-10 > 100 µM | KM12 29.7 µM | Hs-578T 36.1 µM | SF-295 59.6 µM | MDA-MB-231 > 100 µM | CCRF-CEM 46.9 µM | SN12C 36 µM | SK-OV-3 > 100 µM | EKVX 51.2 µM | RPMI-8226 25.3 µM | NCI-H23 55.2 µM | OVCAR-8 56.9 µM | LOX IMVI 34.9 µM | SK-MEL-5 43.1 µM | UACC-257 46.8 µM | SW-620 54.5 µM | MCF7 50.1 µM

CN(C)/C=N/n1c2ccccc2c2ccccc21
inactive: CAKI-1 3.64 µM | MDA-MB-435 > 100 µM | 786-0 > 100 µM | TK-10 > 100 µM | KM12 > 100 µM | Hs-578T 34 µM | SF-295 > 100 µM | MDA-MB-231 > 100 µM | CCRF-CEM > 100 µM | SN12C > 100 µM | SK-OV-3 > 100 µM | EKVX > 100 µM | RPMI-8226 > 100 µM | NCI-H23 > 100 µM | OVCAR-8 > 100 µM | LOX IMVI > 100 µM | SK-MEL-5 > 100 µM | UACC-257 > 100 µM | SW-620 > 100 µM | MCF7 > 100 µM

CC(=O)Nc1nnc(S(=O)(=O)NC(=S)Nc2ccc(Cl)cc2)s1
inactive: CAKI-1 > 100 µM | MDA-MB-435 > 100 µM | 786-0 > 100 µM | TK-10 > 100 µM | KM12 > 100 µM | Hs-578T > 100 µM | SF-295 > 100 µM | MDA-MB-231 > 100 µM | CCRF-CEM > 100 µM | SN12C > 100 µM | SK-OV-3 > 100 µM | EKVX > 100 µM | RPMI-8226 > 100 µM | NCI-H23 > 100 µM | OVCAR-8 > 100 µM | LOX IMVI > 100 µM | SK-MEL-5 > 100 µM | UACC-257 > 100 µM | SW-620 > 100 µM | MCF7 > 100 µM

O=C1OC(C2=CC(=O)c3ccccc3C2=O)C(Cl)=C1Cl (stereo not given)
inactive: CAKI-1 67.9 µM | MDA-MB-435 35.6 µM | 786-0 17.9 µM | TK-10 66.7 µM | KM12 77.4 µM | Hs-578T 54.7 µM | SF-295 86.5 µM | MDA-MB-231 11.6 µM | CCRF-CEM 20 µM | SN12C 18.3 µM | SK-OV-3 79.6 µM | EKVX 37.8 µM | RPMI-8226 19.5 µM | NCI-H23 24.4 µM | OVCAR-8 13.7 µM | LOX IMVI 20.2 µM | SK-MEL-5 31.1 µM | UACC-257 77.8 µM | SW-620 35.2 µM | MCF7 20.9 µM

Reference: ChEMBL document CHEMBL1201862, “PubChem BioAssay data set” (2004)
